This is an account of results in patent US7629471B2, “Transcriptional factor, process for producing the same and use thereof” (NRL Pharma, Inc., priority 2003, dated 2009).

For one data set, the system named is Male ICR mice. Nature of the data set: Effect on serum total cholesterol: in-feed vs forced oral administration (Table 1). Format: in vivo. Conditions: 1 week, n = 6, tested in triplicate. From the text: In contrast, the solubility of Compound-1 in water is as extremely low as about 0.7 g/l; Compounds-1 and -2 are poles apart in terms of solubility in water. […] However, even when both compounds are simply mixed in a mechanical manner into feed in an amount of 0.1% or even when both compounds are given for forced oral administration in the same drug amount calculated from feed intake, there is no reproducibility in their efficacy unlike the case where their acetone solutions are sprayed over feed.

The test system of another data set is db/db mice. Nature of the data set: Urinary sugar excretion in db/db mice: in-feed vs forced oral administration (Table 1). The note with it: for % Reduction of urinary sugar excretion: n = 4, tested in triplicate. Format: in vivo.
The target of another data set is T1, aromatase (Homo sapiens, UniProt P11511).
T1 sequence (P11511 1-503): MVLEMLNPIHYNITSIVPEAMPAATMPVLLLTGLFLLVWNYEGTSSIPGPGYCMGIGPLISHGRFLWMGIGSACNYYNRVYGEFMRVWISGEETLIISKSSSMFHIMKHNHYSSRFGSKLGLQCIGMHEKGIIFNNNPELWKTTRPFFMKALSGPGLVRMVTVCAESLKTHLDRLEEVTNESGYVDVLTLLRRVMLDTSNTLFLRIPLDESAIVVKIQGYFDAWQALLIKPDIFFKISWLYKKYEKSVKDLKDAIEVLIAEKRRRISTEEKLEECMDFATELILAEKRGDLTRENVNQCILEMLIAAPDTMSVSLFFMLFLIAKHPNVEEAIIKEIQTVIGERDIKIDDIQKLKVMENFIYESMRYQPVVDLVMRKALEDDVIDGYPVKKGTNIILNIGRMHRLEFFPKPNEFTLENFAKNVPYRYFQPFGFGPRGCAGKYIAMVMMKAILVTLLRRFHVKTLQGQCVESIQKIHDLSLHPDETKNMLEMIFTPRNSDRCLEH
Conditions: cited from earlier work.

Data set [1] has as its system rodents. Conditions: rodents (mice, rats); cited from earlier work.
Another data set relates to C57BL/ksj db/db mice. Nature of the data set: Effect on genetically obese diabetic mice: urinary sugar excretion (Example 6). The format is in vivo. The protocol:
A solution of Compound-16 (1 g) in acetone (about 50 ml) was sprinkled over and mixed well with 1 kg of rodent standard feed (CE-2, CLEA Japan, Inc., Japan), followed by air-drying in a chamber. The content of Compound-16 in this feed was about 0.1%. In the same manner, pellet chow samples containing 0.05% to 0.025% of Compound-16 were prepared and used for the experiment. To prepare control feed, the same powder feed was sprinkled with acetone and palletized. Twenty male db/db mice (8 weeks of age after birth) were randomly divided into 4 groups. Each group was housed in a cage for urine collection and fed with the Compound-16-containing feed or the control feed for 21 days. During the housing, the mice were allowed to take feed and water ad libitum and their urine was collected at the intervals indicated in Table 1 to determine urinary sugar excretion by an enzymatic method. The level of urinary sugar excretion was expressed as the mean per animal.

In the next data set the test system is ICR male mice. Format: in vivo. The note with it: added at 0.1% to feed, 1 week; control group 143. An excerpt:
Fifty ICR male mice (5 weeks of age) were randomly divided into 5 groups of 10 animals each and housed in polycarbonate cages at 5 animals per cage. […] […] After 1 week, the blood was collected from the heart of each mouse to determine the level of serum total cholesterol by an enzymatic method.

The subject of the next data set is Ras farnesylation. The note with it: cited from earlier work.
In the next data set the test system is animal virus. Conditions: without affecting nucleic acid and protein biosynthesis; cited from earlier work.
Data set [2] deals with mice starved for a 48-hour period. The note with it: trace amount by oral route 2 hours before feed intake; 2-hour intake time; mice starved 48 hours; cited from earlier work.
Data set [3] concerns arthritis in rats induced by adjuvant injection. The note with it: adjuvant injection into footpads; cited from earlier work.
For data set [4] the following is noted: cited from earlier work.
A further data set has as its system hypertensive rat models. Conditions: cited from earlier work.
Data set [5] relates to rodents. The note with it: cited from earlier work.
The mark [6] stands for this setting: Spraying of acetone solution over feed, 0.1% in feed.
Where [7] appears, read: Mechanical mixing into feed, 0.1%.

“And” between values parts separate entries of the source, which are not always exact repeats. Identical values can stand only once. Like-named read-outs stand apart in the source and are kept apart here. Marks after values point to notes of the source that are not given here.

As for `CC(C=CC1(C)C(C)CCC(=O)C1C)=CCc1c(O)c(C=O)c(C)c(Cl)c1OCC(=O)O` (centres unmarked) [Compound-2, 4-O-carboxymethylascochlorin], in the data set on Male ICR mice (setting [6]), the “Decrease in serum cholesterol levels” value is given as 17.5%-22.7% decrease, P < 0.01. Besides, in the data set on db/db mice (Forced oral administration, db/db mice, deaths/animals in first, second, third test), the Toxic death is 2/4 in the first test and 1/4 in the second test and 1/4 in the third test. Further, the “% Reduction of urinary sugar excretion” value with db/db mice (Forced oral administration) is recorded as “Not effective”. In addition, in the data set with db/db mice (Mechanical mixing into feed, db/db mice), the Body weight gain entry is “body weight gain is inhibited”. Also, in the data set “Solubility in water” (in the small intestine (pH 7.2 to 7.4)), the “Amount dissolved in water” value is recorded as not below 6%.
On to `CC(/C=C/[C@@]1(C)[C@H](C)C=CC(=O)[C@@H]1C)=C\Cc1c(O)c(Cl)c(C)c(C=O)c1O` [cylindrochlorin], for which, on aromatase, the Aromatase inhibition result is “strong inhibitory substance”. Besides, the Serum cholesterol lowering entry in the data set on rodents [1] is given as “stronger effect of lowering serum cholesterol”.
Take `CC(=O)N[C@@H](CCCCN=Cc1c(C)c(Cl)c(O)c(C/C=C(C)/C=C/[C@@]2(C)[C@H](C)CCC(=O)[C@@H]2C)c1O)C(=O)O` [Compound-16]: the “Level of urinary sugar excretion” value amounted to 890 mg/mouse/day with C57BL/ksj db/db mice (0.025% in feed, 0 days (24 h urine beginning 1 day before initiation, baseline)); 600 mg/mouse/day in the data set on C57BL/ksj db/db mice (0.025% in feed, 1 day); 452 mg/mouse/day in the data set on C57BL/ksj db/db mice (0.025% in feed, 3 days); 175 mg/mouse/day in the data set on C57BL/ksj db/db mice (0.025% in feed, 7 days); 201 mg/mouse/day in the data set with C57BL/ksj db/db mice (0.025% in feed, 14 days); 134 mg/mouse/day in the data set on C57BL/ksj db/db mice (0.025% in feed, 21 days). Further, the “Level of urinary sugar excretion” value in the data set on C57BL/ksj db/db mice (0.05% in feed, 0 days (24 h urine beginning 1 day before initiation, baseline)) was 786 mg/mouse/day; with C57BL/ksj db/db mice (0.05% in feed, 1 day), 541 mg/mouse/day; in the data set with C57BL/ksj db/db mice (0.05% in feed, 3 days) it was 231 mg/mouse/day; in the data set with C57BL/ksj db/db mice (0.05% in feed, 7 days), 253 mg/mouse/day; with C57BL/ksj db/db mice (0.05% in feed, 14 days), 170 mg/mouse/day; in the data set on C57BL/ksj db/db mice (0.05% in feed, 21 days) it was 52 mg/mouse/day. The “Level of urinary sugar excretion” value in the data set with C57BL/ksj db/db mice (0.1% in feed, 0 days (24 h urine beginning 1 day before initiation, baseline)) was determined as 814 mg/mouse/day; with C57BL/ksj db/db mice (0.1% in feed, 1 day), 187 mg/mouse/day; in the data set with C57BL/ksj db/db mice (0.1% in feed, 3 days) it was 30 mg/mouse/day; in the data set on C57BL/ksj db/db mice (0.1% in feed, 7 days), 15 mg/mouse/day; in the data set on C57BL/ksj db/db mice (0.1% in feed, 14 days), 10 mg/mouse/day; in the data set on C57BL/ksj db/db mice (0.1% in feed, 21 days) it was 10 mg/mouse/day.
Consider `CC(=O)N[C@@H](CCCCN=Cc1c(C)c(Cl)c(OCC(=O)O)c(C/C=C(C)/C=C/[C@@]2(C)[C@H](C)CCC(=O)[C@@H]2C)c1O)C(=O)O` [Compound-19], for which the Serum total cholesterol in the data set on ICR male mice is reported as 95** mg/dl.
The same measure, in the same setting: the result for `CC(/C=C/[C@@]1(C)[C@H](C)CCC(=O)[C@@H]1C)=C\Cc1c(O)c(Cl)c(C)c(C=NCC(N)=O)c1O` [Compound-13] reads 112** mg/dl.
Take `CC(C=C[C@]1(C)[C@H](C)C(=O)CC[C@@H]1C)=CCc1c(O)c(Cl)c(C)c(C=O)c1O` [Ascochlorin, 3-[5-[1(R),2(S),6(S)-trimethyl-3-oxocyclohexyl]-3-methyl-2,4-pentadienyl]-2,4-dihydroxy-5-chloro-6-methylbenzaldehyde]: the “Inhibition of Ras farnesylation” value with Ras farnesylation was “inhibited Ras farnesylation”. In the data set on animal virus, the Animal virus growth entry was “arrests animal virus growth”. The Serum cholesterol lowering entry in the data set with rodents [1] was “effect of lowering serum cholesterol”. Besides, the “Anorectic effect (feed intake)” value in data set [2] is reported as “half inhibition of feed intake”. Besides, in data set [3], the Inflammatory swelling result is given as “alleviating inflammatory swelling”. Further, the “Absorption from the digestive tract” value in [4] (in vivo, po) was “most of them pass through the digestive tract without being absorbed”.
For the compound `COc1c(Cl)c(C)c(C=O)c(O)c1C/C=C(C)/C=C/[C@@]1(C)[C@H](C)CCC(=O)[C@@H]1C` [Compound-1, 4-O-methylascochlorin], the “Decrease in serum cholesterol levels” value with Male ICR mice (Forced oral administration, same drug amount calculated from feed intake) is recorded as “No decrease in all three”; with Male ICR mice (setting [7]), “No decrease in all three tests”; with Male ICR mice (setting [6]), 15.2%-25.1% decrease, P < 0.01. Moreover, the “% Reduction of urinary sugar excretion” value in the data set with db/db mice (setting [7]) is “No inhibitory effect is observed”. Moreover, the “Progression to renal failure” value with hypertensive rat models is recorded as “prevent hypertensive rat models from entering renal failure”. Moreover, in data set [4] (orally administered to small animals (rats, mice) in the fasting state), the “Absorption from the digestive tract” value was “most of them pass through the digestive tract without being absorbed”. Further, the Solubility in water entry in the data set “Solubility in water” is reported as “about 0.7 g/l”. Also, the “Solubility in water (in words)” value in the data set “Solubility in water” is listed as “substantially insoluble in water”.
Take `C/C(=C\Cc1c(O)c(Cl)c(C)c(C=O)c1O)CC/C=C(\C)[C@@H]1CC(=O)C(C)(C)O1` [ascofuranone]: the Serum cholesterol lowering result in the data set with rodents [1] is “serum cholesterol-lowering effect”. Moreover, in the data set on rodents [5], the Anticancer effect result is recorded as “anticancer effect”. Moreover, the “Progression to renal failure” value in the data set with hypertensive rat models is given as “prevent hypertensive rat models from entering renal failure”.
